Patent publication US20250289804A1, “SUBSTITUTED INDOLE COMPOUNDS AND METHODS OF USE THEREOF” (NOVARTIS PHARMA AG, priority 2021, published 2025)

Tests used:
[1] = target: human C3bBb (Homo sapiens (Human), UniProt P00751); test: Human C3bBb enzyme assay (C3a generation from C3, ELISA); format: biochemical; settings: starred values: assay conducted with 1 nM C3b:Bb enzyme; read-out: Human C3b:Bb IC50 Avg
Procedure: Compounds disclosed herein were evaluated for their potency to inhibit human C3bBb in a biochemical assay. To generate active C3bBb complex in vitro, purified human C3b (Complement Technology, A114), CFB (Complement Technology, A135) and CFD (Complement Technology, A136) were mixed in a 1:1:1 ratio to a final concentration of 1 μM each in the C3bBb assay buffer (PBS pH 7.4, 100 μM NiCl2, 0.05% (w/v) CHAPS). The reaction mix was incubated at room temperature for 30 minutes on a rotating platform. […] On the day of the enzyme assay, a reaction mixture containing 3 nM C3bBb complex and 1 μM purified human C3 (Complement Technology, A113) was prepared in the C3bBb assay buffer. Compounds were serial diluted 3-fold in 100% DMSO for a 10-point dose-response curve. A 0.5 μL aliquot of diluted compound solution was transferred to a conical bottom 96-well plate, before 49.5 μL of the reaction mix was added to each well to initiate the reaction. The plate was incubated for 1 hour at room temperature. […] The generation of C3a from C3 by the C3bBb complex was measured using the MicroVue C3a Plus EIA ELISA kit (Quidel, A031). The concentration of C3a from each well was calculated using a standard curve. Percent inhibition values were generated using the baseline (C3 only) and the maximum control (DMSO instead of compound), and IC50 of each compound was calculated using 4-parameter logistic regression.

[2] = test system: MAC formation in normal human serum; test: Human serum MAC formation assay (zymosan-coated plates, 50% normal human serum); settings: 50% normal human serum with EGTA, 37° C. 30 minutes
Procedure: MAC deposition assay using normal human serum was applied to evaluate compound potency under physiologically relevant conditions. Black Maxisorp plates (Thermo Fisher, 437111) were coated with preactivated zymosan (Complement Technology, B400) at 0.5 mg/mL in carbonate buffer (pH 9.5, Sigma, C3041) at room temperature overnight. Compounds were serial diluted 3-fold in 100% DMSO for a 10-point dose-response curve. Normal human serum (Complement Technology, NHS) was diluted to 50% (v/v) with the gelatin buffer (4.2 mM HEPES pH 7.4, 0.15 mM CaCl2, 141 mM NaCl, 4.5 mM MgCl2, 0.1% gelatin) containing 20 mM EGTA or 20 mM EDTA. In conical bottom 96-well plates, 1 μL compound and 99 μL of serum-EGTA were mixed. Serum-EDTA was used as baseline control. The serum-compound mixture was incubated at room temperature for 15 minutes before being transferred to the washed zymosan plate for complement activation at 37° C. for 30 minutes. The reaction was terminated by decanting the reaction mixture and adding blocking buffer (Thermo Fisher, 37539) for 20 minutes. MAC formation on the ELISA plate was detected using 0.2 μg/mL mouse anti-human C9 neoepitope monoclonal antibody (Thermo Fisher, MA5-33373) diluted in phosphate-buffered saline with 0.05% Tween-20 (PBST). A goat anti-mouse IgG-HRP antibody (Thermo Fisher, A16072) was used at 1:2000 in PBST as secondary antibody. After washing, the reaction was developed using QuantaBlu (Thermo Fisher, 15169) for 20 minutes at room temperature. The plates were read at 325 nm excitation and 420 nm emission wavelengths. Percent inhibition values were generated using the baseline (EDTA-serum) and the maximum control (EGTA-serum). An IC50 for each compound was calculated using 4-parameter logistic regression.

human C3bBb, sequence (P00751 260-764): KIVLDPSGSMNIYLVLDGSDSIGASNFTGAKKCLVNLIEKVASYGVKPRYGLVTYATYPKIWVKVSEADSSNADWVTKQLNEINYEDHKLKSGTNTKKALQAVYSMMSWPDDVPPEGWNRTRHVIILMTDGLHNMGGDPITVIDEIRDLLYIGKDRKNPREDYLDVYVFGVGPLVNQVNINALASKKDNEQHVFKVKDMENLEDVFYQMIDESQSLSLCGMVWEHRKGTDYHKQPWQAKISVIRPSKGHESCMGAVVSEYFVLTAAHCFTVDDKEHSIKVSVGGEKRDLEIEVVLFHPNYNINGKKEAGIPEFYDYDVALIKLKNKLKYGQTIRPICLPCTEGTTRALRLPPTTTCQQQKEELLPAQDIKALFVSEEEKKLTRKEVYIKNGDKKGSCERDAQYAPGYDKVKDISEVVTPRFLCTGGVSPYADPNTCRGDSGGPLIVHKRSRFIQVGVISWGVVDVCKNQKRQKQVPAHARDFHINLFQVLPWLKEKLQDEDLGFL
human C3bBb, sequence (P01024 23-667 partner): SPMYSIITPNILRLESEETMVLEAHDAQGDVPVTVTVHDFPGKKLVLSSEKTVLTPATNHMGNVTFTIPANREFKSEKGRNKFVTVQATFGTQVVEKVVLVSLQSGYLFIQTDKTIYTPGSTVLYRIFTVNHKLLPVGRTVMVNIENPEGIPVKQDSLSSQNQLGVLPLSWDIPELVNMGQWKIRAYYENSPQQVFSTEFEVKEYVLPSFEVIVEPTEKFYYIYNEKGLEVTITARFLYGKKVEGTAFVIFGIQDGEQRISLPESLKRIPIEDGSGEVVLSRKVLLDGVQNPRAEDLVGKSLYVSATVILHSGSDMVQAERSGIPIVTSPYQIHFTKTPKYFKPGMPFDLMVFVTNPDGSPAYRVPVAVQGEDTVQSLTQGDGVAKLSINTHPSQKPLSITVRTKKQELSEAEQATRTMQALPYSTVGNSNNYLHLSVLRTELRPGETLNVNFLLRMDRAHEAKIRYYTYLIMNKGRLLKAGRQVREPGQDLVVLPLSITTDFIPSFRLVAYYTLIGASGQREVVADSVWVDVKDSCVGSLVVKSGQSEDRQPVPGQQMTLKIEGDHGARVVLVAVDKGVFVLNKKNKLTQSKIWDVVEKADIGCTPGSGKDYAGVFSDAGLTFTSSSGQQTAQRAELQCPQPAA
human C3bBb, sequence (P01024 749-1663 partner): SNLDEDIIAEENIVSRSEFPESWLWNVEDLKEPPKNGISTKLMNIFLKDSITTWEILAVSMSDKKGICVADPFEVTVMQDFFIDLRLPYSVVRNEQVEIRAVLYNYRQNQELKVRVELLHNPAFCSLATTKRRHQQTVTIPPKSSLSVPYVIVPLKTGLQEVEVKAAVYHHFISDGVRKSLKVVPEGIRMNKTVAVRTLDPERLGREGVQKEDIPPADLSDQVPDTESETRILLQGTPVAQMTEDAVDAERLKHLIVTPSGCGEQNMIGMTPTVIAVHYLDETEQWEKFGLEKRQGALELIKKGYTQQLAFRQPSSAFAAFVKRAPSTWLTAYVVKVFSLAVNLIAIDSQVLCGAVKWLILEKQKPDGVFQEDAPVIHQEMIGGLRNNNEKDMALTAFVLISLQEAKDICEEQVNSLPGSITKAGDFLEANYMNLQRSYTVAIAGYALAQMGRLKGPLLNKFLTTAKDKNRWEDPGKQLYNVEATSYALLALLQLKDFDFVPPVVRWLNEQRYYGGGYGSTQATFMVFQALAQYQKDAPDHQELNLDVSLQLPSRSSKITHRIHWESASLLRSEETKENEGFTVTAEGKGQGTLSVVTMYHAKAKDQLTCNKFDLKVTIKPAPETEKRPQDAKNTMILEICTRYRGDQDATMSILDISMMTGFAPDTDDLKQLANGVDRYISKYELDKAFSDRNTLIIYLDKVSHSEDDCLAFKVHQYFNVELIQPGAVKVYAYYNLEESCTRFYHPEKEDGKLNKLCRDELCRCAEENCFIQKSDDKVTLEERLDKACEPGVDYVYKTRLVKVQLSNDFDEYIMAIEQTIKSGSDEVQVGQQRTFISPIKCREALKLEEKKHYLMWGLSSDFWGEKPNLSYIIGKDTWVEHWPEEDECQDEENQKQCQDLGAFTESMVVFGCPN

| Structure (SMILES) | IC50 [1] | IC50 [2] |
| --- | --- | --- |
| COc1cc(C)c2[nH]ccc2c1CN1CC[C@]2(CCC(F)(F)C2)C[C@H]1c1ccc(C(=O)O)cc1 (single isomer, unassigned) [Example 35, 4-(5R,7S)-(2,2-difluoro-8-((5-methoxy-7-methyl-1H-indol-4-yl)methyl)-8-azaspiro[4.5]decan-7-yl)benzoic acid or 4-(5S,7S)-(2,2-difluoro-8-((5-methoxy-7-methyl-1H-indol-4-yl)methyl)-8-azaspiro[4.5]decan-7-yl)benzoic acid] | < 10 nM | < 100 nM |
| COc1cc(C)c2[nH]ccc2c1CN1CC[C@]2(CCC(F)(F)C2)C[C@H]1c1ccc(C(=O)O)cc1 (single isomer, unassigned) [Example 36, 4-(5R,7S)-(2,2-difluoro-8-((5-methoxy-7-methyl-1H-indol-4-yl)methyl)-8-azaspiro[4.5]decan-7-yl)benzoic acid or 4-(5S,7S)-(2,2-difluoro-8-((5-methoxy-7-methyl-1H-indol-4-yl)methyl)-8-azaspiro[4.5]decan-7-yl)benzoic acid] | < 10 nM | < 100 nM |
| COc1cc(C)c2[nH]ccc2c1CN1CC[C@]2(C[C@H]1c1ccc(C(=O)O)cc1)C[C@@H](C(F)F)C2 (single isomer, unassigned) [Example 46, 4-((2R,4s,6S)-2-(difluoromethyl)-7-((5-methoxy-7-methyl-1H-indol-4-yl)methyl)-7-azaspiro[3.5]nonan-6-yl)benzoic acid or 4-((2S,4r,6S)-2-(difluoromethyl)-7-((5-methoxy-7-methyl-1H-indol-4-yl)methyl)-7-azaspiro[3.5]nonan-6-yl)benzoic acid] | < 10 nM | 100 to 200 nM |
| COc1cc(C)c2[nH]ccc2c1CN1CC[C@]2(C[C@H]1c1ccc(C(=O)O)cc1)C[C@@H](C(F)F)C2 (single isomer, unassigned) [Example 47, 4-((2R,4s,6S)-2-(difluoromethyl)-7-((5-methoxy-7-methyl-1H-indol-4-yl)methyl)-7-azaspiro[3.5]nonan-6-yl)benzoic acid or 4-((2S,4r,6S)-2-(difluoromethyl)-7-((5-methoxy-7-methyl-1H-indol-4-yl)methyl)-7-azaspiro[3.5]nonan-6-yl)benzoic acid] | < 10 nM | < 100 nM |
| COc1cc(C)c2[nH]ccc2c1CN1CC[C@]2(C[C@H]1c1ccc(C(=O)O)cc1)C[C@@H](C(F)(F)F)C2 (single isomer, unassigned) [Example 48, 4-((2R,4s,6S)-7-((5-methoxy-7-methyl-1H-indol-4-yl)methyl)-2-(trifluoromethyl)-7-azaspiro[3.5]nonan-6-yl)benzoic acid or 4-((2S,4r,6S)-7-((5-methoxy-7-methyl-1H-indol-4-yl)methyl)-2-(trifluoromethyl)-7-azaspiro[3.5]nonan-6-yl)benzoic acid] | < 10 nM | < 100 nM |
| COc1cc(C)c2[nH]ccc2c1CN1CC[C@]2(C[C@H]1c1ccc(C(=O)O)cc1)C[C@@H](C(F)(F)F)C2 (single isomer, unassigned) [Example 49, 4-((2R,4s,6S)-7-((5-methoxy-7-methyl-1H-indol-4-yl)methyl)-2-(trifluoromethyl)-7-azaspiro[3.5]nonan-6-yl)benzoic acid or 4-((2S,4r,6S)-7-((5-methoxy-7-methyl-1H-indol-4-yl)methyl)-2-(trifluoromethyl)-7-azaspiro[3.5]nonan-6-yl)benzoic acid] | < 10 nM | < 100 nM |
| COc1cc(C)c2[nH]ccc2c1CN1CC[C@]2(C[C@H]1c1ccc(C(=O)O)cc1)C[C@@H](C#N)C2 (single isomer, unassigned) [Example 52, 4-((2R,4s,6S)-2-cyano-7-((5-methoxy-7-methyl-1H-indol-4-yl)methyl)-7-azaspiro[3.5]nonan-6-yl)benzoic acid or 4-((2S,4r,6S)-2-cyano-7-((5-methoxy-7-methyl-1H-indol-4-yl)methyl)-7-azaspiro[3.5]nonan-6-yl)benzoic acid] | < 10 nM | < 100 nM |
| COc1cc(C)c2[nH]ccc2c1CN1CC[C@]2(C[C@H]1c1ccc(C(=O)O)cc1)C[C@@H](C#N)C2 (single isomer, unassigned) [Example 55, 4-((2R,4s,6S)-2-cyano-7-((5-methoxy-7-methyl-1H-indol-4-yl)methyl)-7-azaspiro[3.5]nonan-6-yl)benzoic acid or 4-((2S,4r,6S)-2-cyano-7-((5-methoxy-7-methyl-1H-indol-4-yl)methyl)-7-azaspiro[3.5]nonan-6-yl)benzoic acid] | < 10 nM | < 100 nM |
| COc1cc(C)c2[nH]ccc2c1CN1CC[C@]2(C[C@H]1c1ccc(C(=O)O)cc1)C[C@@H](OC(F)F)C2 (single isomer, unassigned) [Example 56, 4-((2R,4s,6S)-2-(difluoromethoxy)-7-((5-methoxy-7-methyl-1H-indol-4-yl)methyl)-7-azaspiro[3.5]nonan-6-yl)benzoic acid or 4-((2S,4r,6S)-2-(difluoromethoxy)-7-((5-methoxy-7-methyl-1H-indol-4-yl)methyl)-7-azaspiro[3.5]nonan-6-yl)benzoic acid] | < 10 nM | < 100 nM |
| COc1cc(C)c2[nH]ccc2c1CN1CC[C@]2(C[C@H]1c1ccc(C(=O)O)cc1)C[C@@H](OC(F)F)C2 (single isomer, unassigned) [Example 57, 4-((2R,4s,6S)-2-(difluoromethoxy)-7-((5-methoxy-7-methyl-1H-indol-4-yl)methyl)-7-azaspiro[3.5]nonan-6-yl)benzoic acid or 4-((2S,4r,6S)-2-(difluoromethoxy)-7-((5-methoxy-7-methyl-1H-indol-4-yl)methyl)-7-azaspiro[3.5]nonan-6-yl)benzoic acid] | < 10 nM | < 100 nM |
| COc1cc(C)c2[nH]ccc2c1CN1CC[C@]2(C[C@H]1c1ccc(C(=O)O)cc1)C[C@@](C)(O)C2 (single isomer, unassigned) [Example 60, 4-((2R,4s,6S)-2-hydroxy-7-((5-methoxy-7-methyl-1H-indol-4-yl)methyl)-2-methyl-7-azaspiro[3.5]nonan-6-yl)benzoic acid or 4-((2S,4r,6S)-2-hydroxy-7-((5-methoxy-7-methyl-1H-indol-4-yl)methyl)-2-methyl-7-azaspiro[3.5]nonan-6-yl)benzoic acid] | 10 to 25 nM | 100 to 200 nM |
| COc1cc(C)c2[nH]ccc2c1CN1CC[C@]2(C[C@H]1c1ccc(C(=O)O)cc1)C[C@@H](F)C2 (single isomer, unassigned) [Example 62, 4-((2R,4s,6S)-2-fluoro-7-((5-methoxy-7-methyl-1H-indol-4-yl)methyl)-7-azaspiro[3.5]nonan-6-yl)benzoic acid or 4-((2S,4r,6S)-2-fluoro-7-((5-methoxy-7-methyl-1H-indol-4-yl)methyl)-7-azaspiro[3.5]nonan-6-yl)benzoic acid] | < 10 nM | < 100 nM |
| COc1cc(C)c2[nH]ccc2c1CN1CC[C@]2(C[C@H]1c1ccc(C(=O)O)cc1)C[C@@H](F)C2 (single isomer, unassigned) [Example 63, 4-((2R,4s,6S)-2-fluoro-7-((5-methoxy-7-methyl-1H-indol-4-yl)methyl)-7-azaspiro[3.5]nonan-6-yl)benzoic acid or 4-((2S,4r,6S)-2-fluoro-7-((5-methoxy-7-methyl-1H-indol-4-yl)methyl)-7-azaspiro[3.5]nonan-6-yl)benzoic acid] | < 10 nM | < 100 nM |
| COc1cc(C)c2[nH]ccc2c1CN1CC[C@@]2(C[C@H]1c1ccc(C(=O)O)cc1)CC2(F)F (stereo in doubt) [Example 30, 4-((3R,5S)- or ((3S,5S)-1,1-difluoro-6-((5-methoxy-7-methyl-1H-indol-4-yl)methyl)-6-azaspiro[2.5]octan-5-yl)benzoic acid] | < 10 nM | 100 to 200 nM |
